From patent publication US5847047A, “Antimicrobial composition of a polymer and a peptide forming amphiphilic helices of the magainin-type” (priority 1995, dated 1998)
Where a SMILES comes first, the peptide text is derived from it. Where no end group is shown, it is not given here.

What was measured:
E. coli [1] = experiment: Antimicrobial activity of soluble oligopeptides, microtiter growth inhibition (MIC); format: cell-based; details: soluble peptide, LB broth, 37° C.
Description: (§1) The term "MIC" refers to minimal inhibitory concentration and will be defined as the lowest concentration of either soluble peptide or peptide immobilized on a polymer that results in total kill of bacteria.
(§2) Typically, assays for antimicrobial activity of soluble oligopeptide compositions were carried out in microtiter wells. Each well was charged with 150 μl of LB broth containing cells at a final concentration of between 1×10^6 to 1×10^7 cells/ml and oligopeptide at final concentrations of 1×10^-3 to 1×10^-6 M. It is preferred that the oligopeptides be dissolved in water prior to addition to the assay medium and that cells be inoculated from mid-log phase cultures. […] Cultures showing cell growth inhibition were incubated for an additional 15 hr. at which time a final absorbance reading was taken. FIGS. 4a-d illustrate the cell growth inhibition of E. coli cultures incubated in the presence of various oligopeptides.
(§3) All manipulations with microorganisms involved the application of standard sterile techniques employed in microbiology. All cells were grown at 37° C. Cell concentration was measured by optical density measurements at 600 nm in a Perkin Elmer Model 552 UV/VIS spectrophotometer. The microorganisms used were strains of E. coli. and S. aureus. On the day prior to the assay, an overnight culture was prepared. On the following morning, the stationary phase cells were subcultured and allowed to grow to mid-log phase.
(§4) Each well was charged with LB Broth (150 mcL). The oligopeptide samples were dissolved in water and were added to achieve the appropriate final oligopeptide concentrations (ranging from 1×10^-3 to 1×10^-6 M) Finally, cells suspended in LB medium were added to a final concentration of between 1×10^6 to 1×10^7 cells/mL. The microtiter plate was covered and allowed to gently rotate in an orbital shaker. […] Control samples used for all experiments were: (a) LB broth only=uninoculated control; (b) LB broth only+cells=inoculated control.
In FIGS. 4a-d cell growth inhibition is plotted as molar concentration of antimicrobial peptide as a function of the number of cells killed/ml. FIG. 4a-d illustrates the activity of the core oligopeptide, the N-addition analogue of formula II, the N-addition analogue of formula III, and the N-addition analogue of formula IV, respectively. All cultures were actively growing in log-phase and at a cell concentration of 2.0×10^7 cells/ml.

S. aureus = experiment: as above; format: cell-based; details: soluble peptide, LB broth, 37° C.
Description: as §1, §2, §3, §4

E. coli [2] = experiment: Shake flask method for peptides covalently bound to polyamide resin (CFU count); format: cell-based; details: for % Reduction E. coli: immobilized peptide on EDA-PepsynK, determined as described in Example 9; for MIC E. coli: concentration of oligopeptide immobilized on PepsynK resin via EDA linker, shake flask, phosphate buffer pH 7.2, 37° C.
Description: (§5) Occasionally, a shake flask method was employed for insoluble articles. In the shake flask method, 75 mL of 0.6 mM phosphate buffer, pH 7.2 and 0.100 mL of the stock cell culture and the oligopeptide sample were added to a 250 mL polystyrene tissue culture flask. The flasks were incubated in a shaking water bath at 37° C. At specified times (1 hour and 24 hours), an aliquot (0.100 mL) was removed from the shake flask and serial dilutions ranging from 10 to 1000-fold were made to allow the enumeration of cells on agar plates. Each agar plate was inoculated with 0.200 mL of the diluted cell suspension, and the suspension was uniformly spread on the plate. Colony-forming units CFU on the agar plates were counted after 24 hours in an incubator (37° C.). Cells were identified by visual observation and use of a colony counter. Total CFU/mL was determined by correcting the cell count for the dilution factor.
Samples of peptides corresponding to the amino acid sequences SEQ ID NO:8, SEQ ID NO:13, SEQ ID NO:14, SEQ ID NO:15 and SEQ ID NO:1, were covalently linked to the polyamide resin PepSyn K as described in Example 10 and were tested for antimicrobial activity. Five compositions (PEPSYNK-LKP, PEPSYNK-LKPGK, PEPSYNK-LKPG2 K, PEPSYNK-LKPG3 K, and PEPSYNK-KGLKP) were tested over a range of 0 to 5 mg/ml of oligopeptide. Since the covalently linked oligopeptide/polymer compositions were insoluble, the protocol for testing antimicrobial activity was modified from that for the soluble peptide compositions of Example 2. Here, a shake flask method was employed.
as §5, with “In” for “Occasionally, a shake flask method was employed for insoluble articles. In”, “oligopeptide samples, ranging from 0 to 5 mg/ml of oligopeptide” for “oligopeptide sample”, “dilutions were made” for “dilutions”, “1000-fold” for “1000-fold were made”, “enumeration or” for “enumeration of”, “factor. In this manner the minimal inhibitory concentration (MIC) of oligopeptide for covalently linked compositions corresponding to PEPSYNK-LKP, PEPSYNK-LKPGK, PEPSYNK-LKPG2 K, PEPSYNK-LKPG3 K, and PEPSYNK-KGLKP were determined.” for “factor.”
The bactericidal activity for each immobilized peptide was determined as described in Example 9. The structures and the bactericidal activities of the immobilized peptides are shown in Table V. The relative activities against E. coli are consistent with what is known about the soluble peptides. […] The reverse magainin is a much poorer bactericide than its normal sequence.

Description for human erythrocytes: A 5.0% stock cell solution of human erythrocytes in phosphate buffered saline (PBS) was prepared by suspending 2.0 mL packed human erythrocytes in 38 mL of phosphate buffered saline (10 mM sodium phosphate, 120 mM sodium chloride, 2.7 mM potassium chloride, pH 7.5). Samples of the four compositions recited above were added to microfuge tubes containing 0.5 mL of cell solution and 0.5 mL of PBS. Upon addition of sample, the vials were capped, gently homogenized, then allowed to gently shake in an incubator at 37° C. for 30 minutes. The samples were centrifuged to sediment the cells. The supernatants were transferred to cuvettes and the absorbances at 414 nm were read in a Perkin Elmer 552 spectrophotometer. The 0 and 100% hemolysis controls were PBS and PBS +1.0% Triton X-100, respectively.

| Compound | Minimal Inhibitory Concentration E. coli (E. coli [1]) [µg/mL] | Minimal Inhibitory Concentration S. aureus (S. aureus) [µg/mL] | % Reduction E. coli (E. coli [2]) [%] | % Hemolysis at >6 mg/mL (human erythrocytes) [%] | MIC E. coli (E. coli [2]) [µg/mL] |
| --- | --- | --- | --- | --- | --- |
| CC(C)C[C@H](NC(=O)[C@H](CCCCN)NC(=O)[C@H](CC(C)C)NC(=O)[C@H](CC(C)C)NC(=O)[C@H](CCCCN)NC(=O)[C@H](CCCCN)NC(=O)[C@H](CC(C)C)NC(=O)[C@H](CC(C)C)NC(=O)[C@H](CCCCN)NC(=O)[C@H](CC(C)C)NC(=O)[C@H](CC(C)C)NC(=O)[C@H](CCCCN)NC(=O)[C@H](CCCCN)NC(=O)[C@H](CC(C)C)NC(=O)CNC(=O)[C@@H](N)CCCCN)C(=O)O [Formula II, KGLKKLLKLLKKLLKL] (H-KGLKKLLKLLKKLLKL-OH) | 7.8 | 15.6 |  |  |  |
| CC(C)C[C@H](NC(=O)[C@H](CCCCN)NC(=O)[C@H](CC(C)C)NC(=O)[C@H](CC(C)C)NC(=O)[C@H](CCCCN)NC(=O)[C@H](CCCCN)NC(=O)[C@H](CC(C)C)NC(=O)[C@H](CC(C)C)NC(=O)[C@H](CCCCN)NC(=O)[C@H](CC(C)C)NC(=O)[C@H](CC(C)C)NC(=O)[C@H](CCCCN)NC(=O)[C@H](CCCCN)NC(=O)[C@H](CC(C)C)NC(=O)CNC(=O)CNC(=O)[C@@H](N)CCCCN)C(=O)O [Formula III, KGGLKKLLKLLKKLLKL] (H-KGGLKKLLKLLKKLLKL-OH) | 7.8 | 62.5 |  |  |  |
| CC(C)C[C@H](NC(=O)[C@H](CCCCN)NC(=O)[C@H](CC(C)C)NC(=O)[C@H](CC(C)C)NC(=O)[C@H](CCCCN)NC(=O)[C@H](CCCCN)NC(=O)[C@H](CC(C)C)NC(=O)[C@H](CC(C)C)NC(=O)[C@H](CCCCN)NC(=O)[C@H](CC(C)C)NC(=O)[C@H](CC(C)C)NC(=O)[C@H](CCCCN)NC(=O)[C@H](CCCCN)NC(=O)[C@H](CC(C)C)NC(=O)CNC(=O)CNC(=O)CNC(=O)[C@@H](N)CCCCN)C(=O)O [Formula IV, KGGGLKKLLKLLKKLLKL] (H-KGGGLKKLLKLLKKLLKL-OH) | 7.8 | 15.6 |  |  |  |
| CC(C)C[C@H](NC(=O)[C@H](CCCCN)NC(=O)[C@H](CC(C)C)NC(=O)[C@H](CC(C)C)NC(=O)[C@H](CCCCN)NC(=O)[C@H](CCCCN)NC(=O)[C@H](CC(C)C)NC(=O)[C@H](CC(C)C)NC(=O)[C@H](CCCCN)NC(=O)[C@H](CC(C)C)NC(=O)[C@H](CC(C)C)NC(=O)[C@H](CCCCN)NC(=O)[C@H](CCCCN)NC(=O)[C@@H](N)CC(C)C)C(=O)O [Formula I] (H-LKKLLKLLKKLLKL-OH) | 15.6 | 31.2 |  |  |  |
| GIGKFLHSAKKFGKAFVGEIMNS (GIGKFLHSAKKFGKAFVGEIMNS; immobilized on EDA-PepsynK resin) [EDA-PepsynK reverse magainin2, reverse magainin 2 peptide immobilized on EDA-modified PepsynK resin] |  |  | 95.14 |  |  |
| PepsynK-KGLKP: peptide SEQ ID NO:1 covalently linked to polyamide resin PepSyn K via non-cleavable EDA linker (KGLKKLLKLLKKLLKL; also: covalently linked to PepSyn K resin via EDA linker) |  |  |  | > 0.7 | 888 |
| PepsynK-LKPG2K: peptide SEQ ID NO:14 covalently linked to polyamide resin PepSyn K via non-cleavable EDA linker (LKLLKKLLKLLKKLGGK; also: covalently linked to PepSyn K resin via EDA linker) |  |  |  | 1.2 | 1208 |
| PepsynK-LKPG3K: peptide SEQ ID NO:15 covalently linked to polyamide resin PepSyn K via non-cleavable EDA linker (LKLLKKLLKLLKKLGGGK; also: covalently linked to PepSyn K resin via EDA linker) |  |  |  | 12.7 | 938 |
| PepsynK-LKPGK: peptide SEQ ID NO:13 covalently linked to polyamide resin PepSyn K via non-cleavable EDA linker (LKLLKKLLKLLKKLGK; also: covalently linked to PepSyn K resin via EDA linker) |  |  |  | 0.7 | 2213 |
| Pepsynk-LKP: peptide SEQ ID NO:8 covalently linked to polyamide resin PepSyn K via non-cleavable EDA linker (LKKLLKLLKKLLKL; also: covalently linked to PepSyn K resin via EDA linker) |  |  |  | 0.9 | 807 |
| SNMIEGVFAKGFKKASHLFKGIG (SNMIEGVFAKGFKKASHLFKGIG; immobilized on EDA-PepsynK resin) [EDA-PepsynK magainin2, magainin 2 immobilized on EDA-modified PepsynK resin] |  |  | 100 |  |  |
| V-F-A-K-G-F-K-K-A-S-H-L-F-K-G-I-G (VFAKGFKKASHLFKGIG; immobilized on EDA-PepsynK resin) [EDA-PepsynK magainin 17-mer deletion, 17-mer deletion peptide of magainin 2 immobilized on EDA-modified PepsynK resin] |  |  | 99.3 |  |  |
